System: HCT116 colorectal cancer cells
Assay: Cisplatin sensitization assay (96 h MTS cell viability);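 also: compound concentration needed to lower the IC50 of Cisplatin alone by a set fold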
Assay type: cell-based
Details: Cisplatin sensitization value
How it was run: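 HCT116 cells were dosed simultaneously with compound and cisplatin as a full matrix of 2-fold serial dilutions from 10 μM top final concentration. Incubation was 96 h at 37° C., 5% CO2, followed by 1 h with MTS reagent for the viability read-out. Sensitization values were binned into +++, ++ and + categories.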

Row | Compound | Cisplatin Sensitization Assay
1 | CN(C)CC1CCN(c2ccncc2NC(=O)c2c(N)nn3cc(F)cnc23)CC1 [I-N-267, 2-amino-N-(4-(4-((dimethylamino)methyl)piperidin-1-yl)pyridin-3-yl)-6-fluoropyrazolo[1,5-a]pyrimidine-3-carboxamide] | +++ (Compounds with a Cisplatin sensitization value of <0.02 μM are marked with “+++.”)
2 | Nc1nn2cc(F)cnc2c1C(=O)Nc1cnccc1N1CCC(c2nnco2)CC1 [I-N-268, N-(4-(4-(1,3,4-oxadiazol-2-yl)piperidin-1-yl)pyridin-3-yl)-2-amino-6-fluoropyrazolo[1,5-a]pyrimidine-3-carboxamide] | +++ (Compounds with a Cisplatin sensitization value of <0.02 μM are marked with “+++.”)
3 | Cc1ncn(-c2ccncc2NC(=O)c2c(N)nn3cc(F)cnc23)c1C [I-N-269, 2-amino-N-(4-(4,5-dimethyl-1H-imidazol-1-yl)pyridin-3-yl)-6-fluoropyrazolo[1,5-a]pyrimidine-3-carboxamide] | ++ (Compounds with a Cisplatin sensitization value >0.02 μM but <0.2 μM are marked with “++.”)
4 | Nc1nn2cc(F)cnc2c1C(=O)Nc1cncc(F)c1N1CCCCC1 [I-N-270, 2-amino-6-fluoro-N-(5-fluoro-4-(piperidin-1-yl)pyridin-3-yl)pyrazolo[1,5-a]pyrimidine-3-carboxamide] | +++ (Compounds with a Cisplatin sensitization value of <0.02 μM are marked with “+++.”)
5 | Nc1nn2cc(F)cnc2c1C(=O)Nc1cnccc1N1CCC(S(=O)(=O)N2CCC2)CC1 [I-N-271, 2-amino-N-(4-(4-(azetidin-1-ylsulfonyl)piperidin-1-yl)pyridin-3-yl)-6-fluoropyrazolo[1,5-a]pyrimidine-3-carboxamide] | +++ (Compounds with a Cisplatin sensitization value of <0.02 μM are marked with “+++.”)
6 | CN1CCOC2(CCN(c3c(F)cncc3NC(=O)c3c(N)nn4cc(F)cnc34)CC2)C1 [I-N-272, 2-amino-6-fluoro-N-(5-fluoro-4-(4-methyl-1-oxa-4,9-diazaspiro[5.5]undecan-9-yl)pyridin-3-yl)pyrazolo[1,5-a]pyrimidine-3-carboxamide] | +++ (Compounds with a Cisplatin sensitization value of <0.02 μM are marked with “+++.”)
7 | Nc1nn2cc(F)cnc2c1C(=O)Nc1cncc(F)c1N1CCC(S(=O)(=O)N2CCN3CCC2CC3)CC1 [I-N-273, N-(4-(4-(1,4-diazabicyclo[3.2.2]nonan-4-ylsulfonyl)piperidin-1-yl)-5-fluoropyridin-3-yl)-2-amino-6-fluoropyrazolo[1,5-a]pyrimidine-3-carboxamide] | +++ (Compounds with a Cisplatin sensitization value of <0.02 μM are marked with “+++.”)
8 | Nc1nn2cc(F)cnc2c1C(=O)Nc1cncc(F)c1N1CCN(C(=O)C2CCOC2)CC1 (centres unmarked) [I-N-274, 2-amino-6-fluoro-N-(5-fluoro-4-(4-(tetrahydrofuran-3-carbonyl)piperazin-1-yl)pyridin-3-yl)pyrazolo[1,5-a]pyrimidine-3-carboxamide] | +++ (Compounds with a Cisplatin sensitization value of <0.02 μM are marked with “+++.”)
9 | CC(=O)N1CCN(c2c(F)cncc2NC(=O)c2c(N)nn3cc(F)cnc23)CC1 [I-N-275, N-(4-(4-acetylpiperazin-1-yl)-5-fluoropyridin-3-yl)-2-amino-6-fluoropyrazolo[1,5-a]pyrimidine-3-carboxamide] | +++ (Compounds with a Cisplatin sensitization value of <0.02 μM are marked with “+++.”)
10 | Nc1nn2cc(F)cnc2c1C(=O)Nc1cncc(F)c1N1CCN(C(=O)C2CC2)CC1 [I-N-276, 2-amino-N-(4-(4-(cyclopropanecarbonyl)piperazin-1-yl)-5-fluoropyridin-3-yl)-6-fluoropyrazolo[1,5-a]pyrimidine-3-carboxamide] | +++ (Compounds with a Cisplatin sensitization value of <0.02 μM are marked with “+++.”)
11 | Nc1nn2cc(F)cnc2c1C(=O)Nc1cncc(F)c1N1CCN2C(=O)CCCC2C1 (centres unmarked) [I-N-277, 2-amino-6-fluoro-N-(5-fluoro-4-(6-oxohexahydro-1H-pyrido[1,2-a]pyrazin-2(6H)-yl)pyridin-3-yl)pyrazolo[1,5-a]pyrimidine-3-carboxamide] | +++ (Compounds with a Cisplatin sensitization value of <0.02 μM are marked with “+++.”)
12 | Nc1nn2cc(F)cnc2c1C(=O)Nc1cncc(F)c1N1CCN(C(=O)C2COC2)CC1 [I-N-278, 2-amino-6-fluoro-N-(5-fluoro-4-(4-(oxetane-3-carbonyl)piperazin-1-yl)pyridin-3-yl)pyrazolo[1,5-a]pyrimidine-3-carboxamide] | +++ (Compounds with a Cisplatin sensitization value of <0.02 μM are marked with “+++.”)
13 | Nc1nn2cc(F)cnc2c1C(=O)Nc1cncc(F)c1N1CCN2C(=O)CCC[C@@H]2C1 [I-N-280, (R)-2-amino-6-fluoro-N-(5-fluoro-4-(6-oxohexahydro-1H-pyrido[1,2-a]pyrazin-2(6H)-yl)pyridin-3-yl)pyrazolo[1,5-a]pyrimidine-3-carboxamide] | +++ (Compounds with a Cisplatin sensitization value of <0.02 μM are marked with “+++.”)
14 | Nc1nn2cc(F)cnc2c1C(=O)Nc1cncc(Cl)c1N1CCCC1 [I-N-281, 2-amino-N-(5-chloro-4-(pyrrolidin-1-yl)pyridin-3-yl)-6-fluoropyrazolo[1,5-a]pyrimidine-3-carboxamide] | +++ (Compounds with a Cisplatin sensitization value of <0.02 μM are marked with “+++.”)
15 | COCC1CCN(c2ccncc2NC(=O)c2c(N)nn3cc(F)cnc23)CC1 [I-N-282, 2-amino-6-fluoro-N-(4-(4-(methoxymethyl)piperidin-1-yl)pyridin-3-yl)pyrazolo[1,5-a]pyrimidine-3-carboxamide] | +++ (Compounds with a Cisplatin sensitization value of <0.02 μM are marked with “+++.”)
16 | Cc1cncn1-c1ccncc1NC(=O)c1c(N)nn2cc(F)cnc12 [I-N-283, 2-amino-6-fluoro-N-(4-(5-methyl-1H-imidazol-1-yl)pyridin-3-yl)pyrazolo[1,5-a]pyrimidine-3-carboxamide] | ++ (Compounds with a Cisplatin sensitization value >0.02 μM but <0.2 μM are marked with “++.”)
17 | Nc1nn2cc(F)cnc2c1C(=O)Nc1cncc(Cl)c1N1CCC(O)C1 (centres unmarked) [I-N-284, 2-amino-N-(5-chloro-4-(3-hydroxypyrrolidin-1-yl)pyridin-3-yl)-6-fluoropyrazolo[1,5-a]pyrimidine-3-carboxamide] | +++ (Compounds with a Cisplatin sensitization value of <0.02 μM are marked with “+++.”)
18 | N#C[C@@H]1CCN(c2c(Cl)cncc2NC(=O)c2c(N)nn3cc(F)cnc23)C1 [I-N-285, (R)-2-amino-N-(5-chloro-4-(3-cyanopyrrolidin-1-yl)pyridin-3-yl)-6-fluoropyrazolo[1,5-a]pyrimidine-3-carboxamide] | ++ (Compounds with a Cisplatin sensitization value >0.02 μM but <0.2 μM are marked with “++.”)
19 | CN1CC2CN(c3c(Cl)cncc3NC(=O)c3c(N)nn4cc(F)cnc34)CC2C1 (centres unmarked) [I-N-286, 2-amino-N-(5-chloro-4-(5-methylhexahydropyrrolo[3,4-c]pyrrol-2(1H)-yl)pyridin-3-yl)-6-fluoropyrazolo[1,5-a]pyrimidine-3-carboxamide] | ++ (Compounds with a Cisplatin sensitization value >0.02 μM but <0.2 μM are marked with “++.”)
20 | CS(=O)(=O)C1CCN(c2c(Cl)cncc2NC(=O)c2c(N)nn3cc(F)cnc23)C1 (centres unmarked) [I-N-287, 2-amino-N-(5-chloro-4-(3-(methylsulfonyl)pyrrolidin-1-yl)pyridin-3-yl)-6-fluoropyrazolo[1,5-a]pyrimidine-3-carboxamide] | +++ (Compounds with a Cisplatin sensitization value of <0.02 μM are marked with “+++.”)
21 | Nc1nn2cc(F)cnc2c1C(=O)Nc1cncc(F)c1N1CCC(n2ccnc2)CC1 [I-N-288, N-(4-(4-(1H-imidazol-1-yl)piperidin-1-yl)-5-fluoropyridin-3-yl)-2-amino-6-fluoropyrazolo[1,5-a]pyrimidine-3-carboxamide] | +++ (Compounds with a Cisplatin sensitization value of <0.02 μM are marked with “+++.”)
22 | CN1CCN(C(=O)C2CCCN(c3c(F)cncc3NC(=O)c3c(N)nn4cc(F)cnc34)C2)CC1 (centres unmarked) [I-N-289, 2-amino-6-fluoro-N-(5-fluoro-4-(3-(4-methylpiperazine-1-carbonyl)piperidin-1-yl)pyridin-3-yl)pyrazolo[1,5-a]pyrimidine-3-carboxamide] | ++ (Compounds with a Cisplatin sensitization value >0.02 μM but <0.2 μM are marked with “++.”)
23 | CN(C)C(=O)C1CCCN(c2ccncc2NC(=O)c2c(N)nn3cc(F)cnc23)C1 (centres unmarked) [I-N-290, 2-amino-N-(4-(3-(dimethylcarbamoyl)piperidin-1-yl)pyridin-3-yl)-6-fluoropyrazolo[1,5-a]pyrimidine-3-carboxamide] | ++ (Compounds with a Cisplatin sensitization value >0.02 μM but <0.2 μM are marked with “++.”)
24 | CN1CC[C@H](Oc2ccncc2NC(=O)c2c(N)nn3cc(F)cnc23)C1 [I-O-1, (S)-2-amino-6-fluoro-N-(4-((1-methylpyrrolidin-3-yl)oxy)pyridin-3-yl)pyrazolo[1,5-a]pyrimidine-3-carboxamide] | +++ (Compounds with a Cisplatin sensitization value of <0.02 μM are marked with “+++.”)
25 | CN(C)Cc1ccc(Oc2ccncc2NC(=O)c2c(N)nn3cc(F)cnc23)cn1 [I-O-3, 2-amino-N-(4-((6-((dimethylamino)methyl)pyridin-3-yl)oxy)pyridin-3-yl)-6-fluoropyrazolo[1,5-a]pyrimidine-3-carboxamide] | ++ (Compounds with a Cisplatin sensitization value >0.02 μM but <0.2 μM are marked with “++.”)
26 | COc1ccncc1NC(=O)c1c(N)nn2cc(F)cnc12 [I-O-4, 2-amino-6-fluoro-N-(4-methoxypyridin-3-yl)pyrazolo[1,5-a]pyrimidine-3-carboxamide] | ++ (Compounds with a Cisplatin sensitization value >0.02 μM but <0.2 μM are marked with “++.”)

From patent US11117900B2 (Vertex Pharmaceuticals Incorporated, priority 2012, dated 2021)
